Converted amounts (≈) assume the structure as drawn.
System: P388
Assay: Cytotoxicity against mouse P388 cells
Format: functional
Settings: read-out: ED50 (the source's name)

SMILES	EC50
CC[C@H](CC[C@@H](C)[C@H]1CC[C@H]2[C@@H]3[C@@H](O)C=C4C[C@@H](O)CC[C@]4(C)[C@H]3CC[C@]12C)C(C)C	0.2 µg/mL (≈ 0.464 µM)
CC[C@H](/C=C/[C@@H](C)[C@H]1CC[C@H]2[C@@H]3[C@@H](O)C=C4C[C@@H](O)CC[C@]4(C)[C@H]3CC[C@]12C)C(C)C	0.1 µg/mL (≈ 0.233 µM)

From ChEMBL document CHEMBL1149006, “Isolation and characterization of a new triterpene from Iris missouriensis” (1986)
